Data on 4 molecules can be found in PubChem BioAssay (NCI).

Among the test systems are 786-0 renal; A498 renal; DLD-1 colon; MALME-3M melanoma; SF-268 CNS; SF-295 CNS; SF-539 CNS; SK-MEL-2 melanoma; SK-MEL-28 melanoma; SNB-78 CNS.
What all share (assay): NCI-60 cell line screen, 48 h

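Cultured in 96-well plates, cells were exposed to test compound for 48 hours across five concentrations. TGI: concentration producing complete growth inhibition.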

In the case of `C/C=C(\N=C=S)C(=O)OC1C(COC(C)=O)OC([C@]2(O)CC(=O)C(=N)C(C(=O)O)=C2O)C(O)C1OC1CC(OC)C(O)([C@@H](C)OC(=O)[C@@H](C)CC)C(C)O1` (stereo not given in full), the TGI amounted to 26.6 µM with 786-0 renal; 62.5 µM in the experiment with A498 renal; 24.9 µM with DLD-1 colon; 22.8 µM in the experiment with MALME-3M melanoma; 23.2 µM with SF-268 CNS; 37.2 µM with SF-295 CNS. The TGI was 17.5 µM in the experiment on SF-539 CNS, 20 µM in the experiment on SK-MEL-2 melanoma, 18.5 µM in the experiment on SK-MEL-28 melanoma and 26.4 µM in the experiment on SNB-78 CNS.
Take `CCOC(=O)c1cc(=O)n(C)c(=O)n1C`: the TGI in the experiment with 786-0 renal, in the experiment with A498 renal, with DLD-1 colon, in the experiment on MALME-3M melanoma, in the experiment with SF-268 CNS and in the experiment with SF-295 CNS was over 100 µM each time. In addition, the TGI in the experiment with SF-539 CNS, in the experiment on SK-MEL-2 melanoma, in the experiment with SK-MEL-28 melanoma and with SNB-78 CNS was over 100 µM each time.
For `Cc1ccc2c(c1)-c1c3c(nn1C)-c1ccccc1SC3O2` (stereo not given), the TGI with 786-0 renal, in the experiment with A498 renal, in the experiment with DLD-1 colon, in the experiment with MALME-3M melanoma, in the experiment on SF-268 CNS and with SF-295 CNS was over 100 µM throughout. Moreover, the TGI with SF-539 CNS, in the experiment on SK-MEL-2 melanoma, with SK-MEL-28 melanoma and in the experiment with SNB-78 CNS was over 100 µM in each case.
For `Cc1cccc(NC(=O)C(=O)C(C2OC(=O)c3ccccc32)[N+](=O)[O-])c1C` (stereo not given), the TGI in the experiment on 786-0 renal amounted to 21.8 µM; in the experiment with A498 renal it was 32 µM; with DLD-1 colon, 23.1 µM; in the experiment on MALME-3M melanoma, 10.5 µM; in the experiment on SF-268 CNS, 24.7 µM; in the experiment on SF-295 CNS it was 28.1 µM. Moreover, the TGI with SF-539 CNS is 34.9 µM; in the experiment with SK-MEL-2 melanoma it was 17.2 µM; in the experiment with SK-MEL-28 melanoma it was 25.1 µM; with SNB-78 CNS it was over 100 µM.
